Experimental data taken from the NIST ThermoML archive (doi:10.1016/j.jct.2013.01.009).
Values joined by “and” are separate entries in the source; they are usually repeats but may differ in a detail not shown here. Equal entries are not always repeated.

Columns and labels:
[1] = for vapor or sublimation pressure: Closed cell (Static) method
[2] = molar heat capacity at constant pressure; settings: 101.33 kPa
[3] = molar enthalpy of vaporization or sublimation; settings: 298.15 K, Static calorimetry
[4] = Molar enthalpy of transition or fusion; settings: Crystal; DSC

CC1=CC[C@H]2C[C@@H]1C2(C)C [(S)-2-pinene]
[1], Liquid
Settings	vapor or sublimation pressure
238.19 K	0.0053 kPa
243.2 K	0.00874 kPa and 0.00875 kPa
253.19 K	0.02209 kPa and 0.0221 kPa
258.2 K	0.03413 kPa and 0.03415 kPa and 0.03412 kPa
263.19 K	0.05172 kPa
268.19 K	0.07688 kPa and 0.07689 kPa and 0.07691 kPa
273.65 K	0.1164 kPa
273.66 K	0.1164 kPa
278.16 K	0.1615 kPa and 0.1614 kPa
283.15 K	0.2288 kPa
288.15 K	0.3195 kPa and 0.3196 kPa
293.15 K	0.4403 kPa and 0.4404 kPa
298.15 K	0.599 kPa and 0.5991 kPa
303.15 K	0.8053 kPa
303.16 K	0.8056 kPa and 0.8057 kPa
308.17 K	1.071 kPa
308.18 K	1.071 kPa

[2], Liquid, Large sample (1 g) DSC
Settings	molar heat capacity at constant pressure [J/K/mol]
273.4 K	239.62
278.5 K	242.37
283.6 K	244.61
288.7 K	247.11
293.8 K	249.27
298.9 K	253.09
304 K	255.34
309.1 K	257.83
314.2 K	260.41
319.4 K	262.57
324.5 K	266.15
329.6 K	268.97
334.7 K	272.3
339.8 K	274.88
344.9 K	278.7
350 K	282.11
355.1 K	284.44

CC1=CC(=O)[C@H]2C[C@@H]1C2(C)C [(-)-verbenone]
[1], Liquid
Settings	vapor or sublimation pressure
273.65 K	0.00181 kPa and 0.00183 kPa
273.66 K	0.00181 kPa
278.15 K	0.00278 kPa
278.16 K	0.00276 kPa and 0.00277 kPa
283.15 K	0.00436 kPa and 0.00437 kPa
288.15 K	0.00676 kPa and 0.00678 kPa and 0.00675 kPa
293.15 K	0.01031 kPa
293.16 K	0.01032 kPa and 0.01035 kPa
298.15 K	0.01545 kPa and 0.01546 kPa and 0.01547 kPa
303.15 K	0.02273 kPa and 0.02278 kPa and 0.02281 kPa
308.16 K	0.03304 kPa and 0.03307 kPa and 0.03309 kPa

[2], Liquid
Settings	molar heat capacity at constant pressure [J/K/mol]
273.4 K, Large sample (1 g) DSC	258.83
278.5 K, Large sample (1 g) DSC	260.99
283.6 K, Large sample (1 g) DSC	262.32
288.7 K, Large sample (1 g) DSC	264.07
293.8 K, Large sample (1 g) DSC	266.73
298.15 K, Drop calorimetry	270.55
298.9 K, Large sample (1 g) DSC	269.39
304 K, Large sample (1 g) DSC	270.47
309.1 K, Large sample (1 g) DSC	273.05
314.2 K, Large sample (1 g) DSC	275.62
319.4 K, Large sample (1 g) DSC	276.87
324.5 K, Large sample (1 g) DSC	279.45
329.6 K, Large sample (1 g) DSC	281.69
334.7 K, Large sample (1 g) DSC	284.69
339.8 K, Large sample (1 g) DSC	286.93
344.9 K, Large sample (1 g) DSC	289.68
350 K, Large sample (1 g) DSC	292
355.1 K, Large sample (1 g) DSC	294.42

Settings	molar enthalpy [kcal/mol]
[3], Liquid	14.1

C=C1CC[C@H]2C[C@@H]1C2(C)C [(1S,5S)-6,6-dimethyl-2-methylenebicyclo[3.1.1]heptane]
[1], Liquid
Settings	vapor or sublimation pressure
248.13 K	0.00844 kPa and 0.00845 kPa
253.14 K	0.01345 kPa and 0.01346 kPa
258.15 K	0.021 kPa and 0.02101 kPa
263.15 K	0.03214 kPa and 0.03213 kPa
268.15 K	0.04828 kPa and 0.04829 kPa
273.65 K	0.07411 kPa and 0.07418 kPa
278.15 K	0.1037 kPa and 0.1038 kPa
283.15 K	0.1485 kPa
288.15 K	0.2093 kPa and 0.2094 kPa and 0.2095 kPa
293.15 K	0.291 kPa and 0.2911 kPa
298.15 K	0.4 kPa
303.15 K	0.5419 kPa and 0.542 kPa
308.15 K	0.7254 kPa and 0.7255 kPa and 0.7256 kPa

[2], Liquid, Large sample (1 g) DSC
Settings	molar heat capacity at constant pressure [J/K/mol]
273.4 K	230.06
278.5 K	232.64
283.6 K	235.22
288.7 K	237.96
293.8 K	240.62
298.9 K	243.36
304 K	245.94
309.1 K	248.19
314.2 K	251.01
319.4 K	254.17
324.5 K	256.75
329.6 K	260.08
334.7 K	262.9
339.8 K	266.4
344.9 K	269.47
350 K	272.05
355.1 K	275.21

CC1=C[C@H](O)[C@H]2C[C@@H]1C2(C)C [(-)-cis-verbenol]
[1]
Settings	Normal melting temperature, Crystal [°C]	vapor or sublimation pressure, 273.15 K	vapor or sublimation pressure, 278.15 K	vapor or sublimation pressure, 283.15 K [kPa]	vapor or sublimation pressure, 288.15 K	vapor or sublimation pressure, 293.15 K	vapor or sublimation pressure, 298.15 K	vapor or sublimation pressure, 303.15 K [kPa]	vapor or sublimation pressure, 308.15 K	vapor or sublimation pressure, 313.15 K
Crystal	–	0.00025 kPa and 0.00026 kPa	0.00049 kPa and 0.0005 kPa	0.00092	0.00169 kPa and 0.00168 kPa	0.003 kPa and 0.00301 kPa	0.00523 kPa and 0.00528 kPa and 0.00529 kPa	0.00906	0.01518 kPa and 0.01523 kPa and 0.01524 kPa	0.02515 kPa and 0.02516 kPa and 0.02517 kPa
DTA	70.5	–	–	–	–	–	–	–	–	–

[2]
Settings	molar heat capacity at constant pressure [J/K/mol]
273.4 K, Crystal, Large sample (1 g) DSC	217.51
278.5 K, Crystal, Large sample (1 g) DSC	222.58
283.6 K, Crystal, Large sample (1 g) DSC	228.98
288.7 K, Crystal, Large sample (1 g) DSC	235.38
293.8 K, Crystal, Large sample (1 g) DSC	242.28
298.15 K, Crystal, Drop calorimetry	233.55
298.9 K, Crystal, Large sample (1 g) DSC	250.18
304 K, Crystal, Large sample (1 g) DSC	259
309.1 K, Crystal, Large sample (1 g) DSC	269.14
344.9 K, Liquid, Large sample (1 g) DSC	372.99
350 K, Liquid, Large sample (1 g) DSC	377.14
355.1 K, Liquid, Large sample (1 g) DSC	381.47

Settings	molar enthalpy [kcal/mol]
[3], Crystal	19.1

Settings	Molar enthalpy of transition or fusion [kcal/mol]
[4]	4.18
